Source: US9034846B2, “Use of cyclodextrin for treatment and prevention of bronchial inflammatory diseases” (UNIVERSITE DE LIEGE, priority 2004, dated 2015)

Columns and labels:
[1] = tested on: OVA exposed mice; experiment: Peribronchial eosinophil infiltration (Congo Red), OVA mouse model; type: in vivo; conditions: FIG. 3
Protocol: (§1) In order to study modulation of airway inflammation, males BALB/c mice of 6 to 8 weeks old were sensitized by intraperitoneal injection of 10 μg ovalbumin (OVA) (Sigma Aldrich, Schnelldorf, Germany) emulsified in aluminum hydroxyde (AlumInject; Perbio, Erembodegem, Belgium) on days 1 and 8. Mice were subsequently exposed to allergens by daily inhalation of an aerosol of OVA 1%, for 30 minutes, generated by ultrasonic nebulizer (Devilbiss 2000), from day 21 to 27. Mice were subjected to inhalation of β-CD, HP-β-CD HP 1, 7.5, 50 mM and HP-β-CD 50 mM 30 minutes before OVA inhalation. Mice were sacrificed performed on day 28 as previously reported by Cataldo and al in Am. J. Pathol 2002; 161(2):491-498.
After BAL, the thorax was opened and the left main bronchus was clamped. The left lung was excised and frozen immediately at −80° C. for protein and mRNA extraction. The right lung was infused with 4 ml paraformaldehyde 4%, embedded in paraffin and used for histology. Sections of 5 μm thickness were cut off from paraffin and were stained with haematoxylin-eosin. The extent of peribronchial inflammation was estimated by a score calculated by quantification of peribronchial inflammatory cells, as previously described by Cataldo D D, Tournoy K G, Vermaelen K et al. in Am J Pathol 2002; 161(2):491-498. A value of 0 was adjudged when no inflammation was detectable, a value of 1 when there was occasionally inflammatory cells, a value of 2 when most bronchi were surrounded by a thin layer (1 to 5 cells) of inflammatory cells and a value of 3 when most bronchi were surrounded by a thick layer (>5 cells) of inflammatory cells. Since 5-7 randomly selected tissue sections per mouse were scored, inflammation scores are expressed as a mean value and can be compared between groups. After Congo Red staining, the eosinophilic infiltration in the airway walls was quantified by manual count and reported to the perimeter of epithelial basement membrane defining an eosinophilic inflammatory score.

[2] = tested on: OVA exposed mice; experiment: Bronchoalveolar lavage differential cell counts, OVA mouse model of asthma; type: in vivo; conditions: for Eosinophils (%) in BAL / Epithelial cells (%) in BAL / Lymphocytes (%) in BAL / Macrophages (%) in BAL / Neutrophils (%) in BAL / Total cells (10^4/ml) in BAL: Table 2
Protocol: as §1
Immediately after assessment of airway responsiveness, and 24 hours after the last allergen exposure.
Mices were sacrificed and a bronchoalveolar lavage was performed using 4×1 ml PBS-EDTA 0.05 mM (Calbiochem, Darmstadt, Germany) as previously described by Cataldo D D, Tournoy K G, Vermaelen K et al. in Am J Pathol 2002; 161(2):491-498. Cells were recovered by gentle manual aspiration. After centrifugation of bronchoalveolar fluid (BALF) (1200 rpm for 10 minutes, at 4° C.), the supernatant was frozen at −80° C. for protein assessment and the cell pellet was resuspended in 1 ml PBS-EDTA 0.05 mM. The differential cell counts were performed on cytocentrifuged preparations (Cytospin) after staining with Diff-Quick (Dade, Belgium).

[3] = tested on: IL-13; experiment: IL-13 ELISA in BAL and lung protein extracts, OVA mouse model; type: in vivo
Protocol: as §1
The left lung was crushed using a Mikro-Dismembrator (Braun Biotech International, Gmbh Melsungen, Germany). For proteins extraction, the crushed lung tissue was incubated overnight at 4° C. in a solution containing 2M urea, 1M NaCl and 50 mM Tris (pH 7.5) and subsequently centrifuged 15 minutes at 16.000×g. The supernatant was stored at −80° C.
Eotaxin and IL-13 levels were assessed using commercial ELISAs (R&D systems, Abingdon, UK). Eotaxin was measured by incubation in a wheel coated with a primary antibody specifically dedicated to the recognition of the protein and after rinsing, a second antibody against eotaxin, coupled with horse radish peroxydase was used to quantify the amounts of eotaxin in the solution
IL-13 was measured by incubation in a wheel coated with a primary antibody specifically dedicated to the recognition of the protein and after rinsing, a second antibody against IL-13, coupled with horse radish peroxydase was used to quantify the amounts of […] in the solution.

[4] = tested on: LPS-induced peribronchial inflammation; experiment: Peribronchial inflammation score, LPS-induced inflammation model; type: in vivo, mouse; conditions: aerosolized 15 mM, vs placebo, FIG. 14
Protocol: In lipopolysaccharide (LPS)-induced inflammation model, mice were exposed to 3 μg LPS diluted in 100 μl of PBS or PBS (phosphate buffer saline) only administered by direct tracheal instillations at day 1 and 5 of the protocol. Mice were daily exposed either to aerosolized hydroxypropyl-beta-cyclodextrin (15 mM) or PBS for 30 min from day 0 to 5 (6 hours after LPS or sham exposure at days 1 and 5). Mice were sacrificed at day 6.
After sacrifice, thorax was opened and the right lungs were excised and snap frozen in liquid nitrogen for protein extraction. The left lung was insufflated at constant pressure with 4% paraformaldehyde and embedded in paraffin for further histological analysis. A peribronchial inflammation score was applied on each hematoxylin-eosin stained slide as previously reported (Cataldo et al Am J Pathol 2002). A value from 0 to 2 was adjudged to each bronchus. Score of 0 corresponded to bronchi without inflammation; score 1 to occasional mononuclear cells observed around bronchi, and score 2 to 1 to 5 layer(s) of inflammatory cells around bronchi. Six bronchi per mice were counted and statistical analysis was performed by using GraphPad Program. […] ELISA for CXCL-1 on lung protein extracts were assessed using antibodies from R&D Systems and the R&D Duoset® Elisa Development kit (R&D Systems, Minneapolis, Minn., USA).

hydroxypropyl-βcyclodextrin [HP-β-CD]
peribronchial eosinophil infiltration ([1]; 50 mM): decrease reached statistical significance
peribronchial eosinophil infiltration ([1]; 1 and 7.5 mM): decrease reached statistical significance
BAL eosinophils ([2]; 1, 7.5 and 50 mM inhalation, FIG. 1): dose dependent decrease
Eosinophils (%) in BAL ([2]; 1 mM): 34.2 ± 7.705 %
Epithelial cells (%) in BAL ([2]; 1 mM): 25.08 ± 3.413%
Lymphocytes (%) in BAL ([2]; 1 mM): 0.48 ± 0.1869%
Macrophages (%) in BAL ([2]; 1 mM): 39.75 ± 5.427%
Neutrophils (%) in BAL ([2]; 1 mM): 0.36 ± 0.1563%
Total cells (10^4/ml) in BAL ([2]; 1 mM): 74.92 ± 14.396 10^4/ml
Eosinophils (%) in BAL ([2]; 10 mM): 27.24 ± 4.98 %
Epithelial cells (%) in BAL ([2]; 10 mM): 34.44 ± 3.723%
Lymphocytes (%) in BAL ([2]; 10 mM): 0.21 ± 0.08571%
Macrophages (%) in BAL ([2]; 10 mM): 37.114 ± 3.878%
Neutrophils (%) in BAL ([2]; 10 mM): 0.83 ± 0.5838%
Total cells (10^4/ml) in BAL ([2]; 10 mM): 114.43 ± 33.245 10^4/ml
Eosinophils (%) in BAL ([2]; 50 mM): 12.18 ± 4.366 %
Epithelial cells (%) in BAL ([2]; 50 mM): 45.04 ± 5.534%
Lymphocytes (%) in BAL ([2]; 50 mM): 0.12 ± 0.12%
Macrophages (%) in BAL ([2]; 50 mM): 41.86 ± 9.043%
Neutrophils (%) in BAL ([2]; 50 mM): 0.72 ± 0.3992%
Total cells (10^4/ml) in BAL ([2]; 50 mM): 37.33 ± 10.683 10^4/ml
BAL eosinophil counts ([2]; after allergen exposure, inhalation at 50 mM, FIG. 1): significantly decreased
Other inflammatory cells in the BAL ([2]; after inhalation, compared to placebo): not present in different amounts
levels of IL-13 in whole lung protein extracts ([3]; 50 mM, FIG. 11): significantly decreased
IL-13 levels in BAL ([3]; FIG. 7b): decreased
Peribronchial inflammation [4]: significantly lower
